# Reference: patent US11491148B2, “Amide derivatives useful in the treatment of HBV infection or HBV-induced diseases” (Janssen Sciences Ireland Unlimited Company, priority 2019, dated 2022)
# Like-named read-outs stand apart in the source and are kept apart here.
# Key:
# HepG2.117 cells = assay: Cytotoxicity, ATPlite cell viability (TOX-HepG2.117); type: cell-based, human
# Experimental: (§1) Cytotoxicity of the compounds was tested using HepG2 or HepG2.117 cells, incubated for 3 days in the presence of compounds. The viability of the cells was assessed using the Perkin Elmer ATPlite Luminescence Assay System.”
# HBV = assay: Anti-HBV activity, intracellular HBV DNA by real-time PCR (HBV-AVE-HepG2.117); type: cell-based, Hepatitis B virus; details: read-out: HBV-AVE-HepG2.117 EC50 (μM; mean value)
# Experimental: The anti HBV activity was measured using the HepG2.117 cell line, a stable, inducible HBV producing cell line, which replicates HBV in the absence of doxicycline (Tet-off system). The HepG2 cell line is available from ATCC®) under number HB-8065. Transfection of the HepG2 cell line can be as described in Sun and Nassal 2006 Journal of Hepatology 45 (2006) 636-645 “Stable HepG2- and Huh7-based human hepatoma cell lines for efficient regulated expression of infectious hepatitis B virus”.
# For the antiviral assay, HBV replication was induced, followed by a treatment with serially diluted compound in 96-well plates. After 3 days of treatment, the antiviral activity was determined by quantification of intracellular HBV DNA using real-time PCR and an HBV specific primer set and probe.
# [1] = Cytotoxicity, ATPlite cell viability (TOX-HepG2.117); type: cell-based, human; details: human; HepG2.117 cells, incubated for 3 days, ATPlite, mean value
# Experimental: as §1
# [2] = HepG2.117 cell line, 3 days of treatment, intracellular HBV DNA, mean value
# [3] = Hepatitis B virus, HepG2.117, 72 h, HepG2.117 cell line, 3 days of treatment, intracellular HBV DNA, mean value
Compound,CC50 (HepG2.117 cells),EC50 (HBV; [2]),CC50 at 3 days [1],"EC50 (HBV; Hepatitis B virus, HepG2.117, 72 h)",EC50 (HBV; [3])
C[C@H]1[C@H](C(=O)Nc2cc(F)c(F)c(F)c2)CCN1C(=O)C(=O)NC1(c2c[nH]nn2)CC(F)(F)C1 [C3′],> 50000 nM,> 2.5 µM,–,–,–
C[C@H]1[C@H](C(=O)Nc2ccc(F)c(C#N)c2)CCN1C(=O)C(=O)NC1(c2c[nH]nn2)CC(F)(F)C1 [C6′],> 50000 nM,2.91 µM,–,–,–
"C[C@H]1[C@@H](C(=O)Nc2cc(F)c(F)c(Br)c2)CCN1C(=O)C(=O)NC1(c2c[nH]nn2)CC(F)(F)C1 [C21, (2S,3S)—N-(3-bromo-4,5-difluorophenyl)-1-(2-((3,3-difluoro-1-(1H-1,2,3-triazol-4-yl)cyclobutyl)amino)-2-oxoacetyl)-2-methylpyrrolidine-3-carboxamide]",–,–,> 50 µM,0.012 µM,–
C[C@H]1[C@@H](C(=O)Nc2ccc(F)c(F)c2F)CCN1C(=O)C(=O)NC1(c2c[nH]nn2)CC(F)(F)C1 [C22],–,–,> 50 µM,–,0.026 µM
Cc1c(F)ccc(NC(=O)[C@H]2CCN(C(=O)C(=O)NC3(c4c[nH]nn4)CC(F)(F)C3)[C@H]2C)c1F [C23],–,–,> 50 µM,–,0.016 µM
Cc1cc(NC(=O)[C@H]2CCN(C(=O)C(=O)NC3(c4c[nH]nn4)CC(F)(F)C3)[C@H]2C)cc(Cl)c1F [C24],–,–,> 50 µM,–,0.012 µM
C[C@H]1[C@@H](C(=O)Nc2cc(F)c(F)c(F)c2)CCN1C(=O)C(=O)NC1(c2nn[nH]c2Cl)CC(F)(F)C1 [C26],–,–,> 50 µM,–,0.176 µM
Cc1cc(NC(=O)[C@H]2CCN(C(=O)C(=O)NC3(c4c[nH]nn4)CC(F)(F)C3)[C@H]2C)cc(F)c1F [C27],–,–,> 50 µM,–,0.012 µM
C[C@H]1C[C@H](C(=O)Nc2cc(F)c(F)c(F)c2)[C@H](C)N1C(=O)C(=O)NC1(c2c[nH]nn2)CC(F)(F)C1 [C35],–,–,> 50 µM,–,0.011 µM
C[C@H]1C[C@H](C(=O)Nc2cc(F)c(F)c(F)c2)[C@H](C)N1C(=O)C(=O)NC(CC(F)(F)F)c1c[nH]nn1 (some centres unmarked) [C36],–,–,> 50 µM,–,< 0.01 µM
Cc1[nH]nnc1C1(NC(=O)C(=O)N2CC[C@H](C(=O)Nc3cc(F)c(F)c(F)c3)[C@@H]2C)CC(F)(F)C1 [C38],–,–,> 50 µM,–,0.012 µM
C[C@H]1[C@@H](C(=O)Nc2cc(F)c(F)c(F)c2)CCN1C(=O)C(=O)N[C@]1(c2c[nH]nn2)C[C@H](C(F)F)C1 [C39c],–,–,> 50 µM,–,0.062 µM
C[C@H]1[C@@H](C(=O)Nc2cc(F)c(F)c(F)c2)CCN1C(=O)C(=O)N[C@]1(c2c[nH]nn2)C[C@@H](C(F)F)C1 [C39t],–,–,> 50 µM,–,0.033 µM
